Consider 29 compounds from ChEMBL document CHEMBL4680164, “Synthesis and antimycobacterial activity of thiazolidine-2,4-dione based derivatives with halogenbenzohydrazones and pyridinecarbohydrazones substituents” (Eur J Med Chem, 2020).

The subject of data set [1] is Mycobacterium tuberculosis. Briefly: Antitubercular activity against Mycobacterium tuberculosis H37Ra ATCC 25177 assessed as reduction in microbial growth after 7 days by Alamar blue assay. In kind it is functional. The conditions noted are these: H37Ra ATCC 25177, 168 h, time 7 day. (In general: Resazurin is reduced to fluorescent resorufin, in cell work by metabolically active cells.)

In the next data set the test system is Vero. Nature of the data set: Cytotoxicity against African green monkey Vero cells incubated for 24 hrs by MTT assay. It is filed as cell-based. The conditions noted are these: Chlorocebus sabaeus.
The nature of data set [2]: Stability of compound in acetonitrile assessed as retention time at 4.52 10^-5mol/L up to 48 hrs by HPLC-DAD method. It is filed as physicochemical.
A short description of data set [3]: Selectivity index, ratio of IC50 for cytotoxicity against African green monkey Vero cells to MIC for antimycobacterial activity against Mycobacterium tuberculosis H37Ra ATCC 25177. The conditions noted are these: read-out: Selectivity Index. It is filed as toxicity, cell-based.
A short description of data set [4]: Stability of compound in acetonitrile at 4.52 10^-5mol/L after 48 hrs by HPLC-DAD method. In kind it is physicochemical. As to conditions: at 45.2 µM.
A short description of data set [5]: Stability of compound in acetonitrile at 4.76 10^-5mol/L after 48 hrs by HPLC-DAD method. It is filed as physicochemical. The conditions noted are these: at 47.6 µM.
Data set [6] in a line: Stability of compound in acetonitrile assessed as retention time at 4.23 10^-5mol/L up to 48 hrs by HPLC-DAD method. In kind it is physicochemical.
Data set [7] in a line: Stability of compound in acetonitrile at 4.23 10^-5mol/L after 48 hrs by HPLC-DAD method. As to conditions: at 42.3 µM. In kind it is physicochemical.
Data set [8] can be described thus: Stability of compound in acetonitrile at 6 10^-5mol/L after 48 hrs by HPLC-DAD method. In kind it is physicochemical. The conditions noted are these: at 60 µM.
Data set [9] can be described thus: Stability of compound in acetonitrile assessed as retention time at 6 10^-5mol/L up to 48 hrs by HPLC-DAD method. In kind it is physicochemical.
Data set [10] is described as follows: Stability of compound in acetonitrile at 6.05 10^-5mol/L after 48 hrs by HPLC-DAD method. In kind it is physicochemical. The conditions noted are these: at 60.5 µM.
Data set [11] is described as follows: Stability of compound in acetonitrile assessed as retention time at 6.05 10^-5mol/L up to 48 hrs by HPLC-DAD method. It is filed as physicochemical.
The nature of data set [12]: Stability of compound in acetonitrile at 4.81 10^-5mol/L after 48 hrs by HPLC-DAD method. It is filed as physicochemical. As to conditions: at 48.1 µM.
Data set [13] in a line: Stability of compound in acetonitrile assessed as retention time at 4.81 10^-5mol/L up to 48 hrs by HPLC-DAD method. It is filed as physicochemical.
Data set [14] can be described thus: Stability of compound in acetonitrile assessed as retention time at 6.48 10^-5mol/L up to 48 hrs by HPLC-DAD method. In kind it is physicochemical.
A short description of data set [15]: Stability of compound in acetonitrile at 6.48 10^-5mol/L after 48 hrs by HPLC-DAD method. It is filed as physicochemical. As to conditions: at 64.8 µM.

The structures appear in SMILES notation. ≈ marks a conversion by molar mass, not a printed value.

Turning to `COc1cc(/C=N/NC(=O)c2ccc(Cl)cc2Cl)ccc1OC(=O)CC1SC(=O)NC1=O` (stereo not drawn), the MIC (usually the lowest concentration found to suppress growth) in data set [1] was 128 µg/mL.
Still for that read-out and setting: with `CCOc1cc(/C=N/NC(=O)c2cccnc2)ccc1OC(=O)CC1SC(=O)NC1=O` (stereo not drawn) the figure was above 512 µg/mL.
For `CCOc1cc(/C=N/NC(=O)c2ccncc2)ccc1OC(=O)CC1SC(=O)NC1=O` (stereo not drawn), in [1], the MIC turned out to be 1 µg/mL. Further, in the data set with Vero, it took 50.9 µg/mL (≈ 115 µM) to reach half-maximal inhibition (IC50). In addition, the Retention_time in data set [2] came out at 7.64 min. In addition, the selectivity ratio in data set [3] is 50.9. Also, in data set [4], the Stabilty entry is recorded as “Stable”.
On to `O=C(CC1SC(=O)NC1=O)Oc1ccc(/C=N/NC(=O)c2cccnc2)cc1Br` (stereo not drawn), for which the MIC in [1] is 512 µg/mL.
In the case of `O=C(/C=C1/SC(=O)NC1=O)Oc1ccccc1/C=N/NC(=O)c1cccc(Cl)c1`, in [1], the MIC was 64 µg/mL.
On the same count and under the same terms, the result for `NNC(=O)c1ccncc1` [ISONIAZID] reads 0.25 µg/mL.
Regarding `CO[C@H]1/C=C/O[C@@]2(C)Oc3c(C)c(O)c4c(O)c(c(/C=N/N5CCN(C)CC5)c(O)c4c3C2=O)NC(=O)/C(C)=C\C=C\[C@H](C)[C@H](O)[C@@H](C)[C@@H](O)[C@@H](C)[C@H](OC(C)=O)[C@@H]1C` [RIFAMPIN], the MIC in data set [1] stood at 0.004 µg/mL. Besides, 138 µg/mL (≈ 167 µM) corresponded to half-maximal inhibition in the data set on Vero (IC50). In addition, in data set [3], the selectivity ratio worked out at 34400.
Take `CC[C@@H](CO)NCCN[C@@H](CC)CO` [ETHAMBUTOL]: in data set [1], the minimum inhibitory concentration (MIC) was found to be 2 µg/mL.
On the same count and under the same terms, the result for `O=C(/C=C1/SC(=O)NC1=O)Oc1ccccc1/C=N/NC(=O)c1cccnc1` reads 128 µg/mL; that for `O=C(CC1SC(=O)NC1=O)Oc1ccc(/C=N/NC(=O)c2ccc(Br)cc2)cc1` (stereo not drawn), 256 µg/mL.
Same read-out and setting: the result for `O=C(CC1SC(=O)NC1=O)Oc1ccc(/C=N/NC(=O)c2ccc(Cl)cc2)cc1` (stereo not drawn) reads 128 µg/mL; that for `COc1cc(/C=N/NC(=O)c2cccc(Cl)c2)ccc1OC(=O)CC1SC(=O)NC1=O` (stereo not drawn), 128 µg/mL.
The same measure, in the same setting: the result for `O=C(CC1SC(=O)NC1=O)Oc1cccc(/C=N/NC(=O)c2ccc(Cl)cc2Cl)c1` (stereo not drawn) reads 128 µg/mL; that for `CN[C@@H]1[C@H](O[C@H]2[C@H](O[C@H]3[C@H](O)[C@@H](O)[C@H](N=C(N)N)[C@@H](O)[C@@H]3N=C(N)N)O[C@@H](C)[C@]2(O)C=O)O[C@@H](CO)[C@H](O)[C@H]1O` [STREPTOMYCIN], 0.5 µg/mL.
As to `COc1cc(/C=N/NC(=O)c2ccncc2)ccc1OC(=O)CC1SC(=O)NC1=O` (stereo not drawn), in data set [5], the Stabilty result is recorded as “Stable”. In data set [1], the minimum inhibitory concentration (MIC) is 1 µg/mL. Further, the IC50 (usually the concentration that inhibits the measured activity by half) in the data set on Vero turned out to be 203 µg/mL (≈ 475 µM). For the same compound, in [3], the selectivity ratio is 203.
Consider `COc1cc(/C=N/NC(=O)c2cccc(Cl)c2)ccc1OC(=O)/C=C1/SC(=O)NC1=O`, for which the MIC in data set [1] came to 128 µg/mL.
As for `O=C(CC1SC(=O)NC1=O)Oc1ccc(/C=N/NC(=O)c2ccncc2)cc1Br` (stereo not drawn), in [6], the Retention_time came to 8.8 min. Moreover, the minimal inhibitory concentration (MIC) in data set [1] is 1 µg/mL. Moreover, the concentration for half-maximal inhibition (IC50) with Vero was 190 µg/mL (≈ 398 µM). Besides, the selectivity ratio in data set [3] amounted to 190. The Stabilty entry in data set [7] was “Stable”.
Consider `O=C(CC1SC(=O)NC1=O)Oc1ccc(/C=N/NC(=O)c2cccc(Cl)c2)cc1` (stereo not drawn), for which the MIC in data set [1] came out at 128 µg/mL.
Still for that read-out and setting: the result for `O=C(CC1SC(=O)NC1=O)Oc1ccc(/C=N/NC(=O)c2cccnc2)cc1Cl` (stereo not drawn) reads 512 µg/mL.
Consider `O=C(/C=C1/SC(=O)NC1=O)Oc1cccc(/C=N\NC(=O)c2ccncc2)c1`, for which the MIC in [1] worked out at 1 µg/mL. For the same compound, the concentration for half-maximal inhibition (IC50) in the data set with Vero came to 143 µg/mL (≈ 361 µM). Besides, the Stabilty result in [8] is on record as “Stable”. Moreover, the Retention_time in [9] is listed as 4.36 min. Further, the selectivity ratio in data set [3] was 143.
Take `O=C(/C=C1/SC(=O)NC1=O)Oc1ccccc1/C=N/NC(=O)c1ccncc1`: in data set [10], the Stabilty result is on record as “Stable”. Moreover, the MIC in data set [1] was found to be 4 µg/mL. In the data set with Vero, this compound had an IC50 above 200 µg/mL. Also, the selectivity ratio in data set [3] was above 50. In addition, the Retention_time in data set [11] stood at 4.36 min.
`O=C(CC1SC(=O)NC1=O)Oc1ccc(/C=N/NC(=O)c2ccc(Cl)cc2Cl)cc1` (stereo not drawn): the minimum inhibitory concentration (MIC) in data set [1] turned out to be 64 µg/mL.
For `O=C(/C=C1/SC(=O)NC1=O)Oc1ccccc1/C=N/NC(=O)c1ccccn1`, the MIC in data set [1] stood at 16 µg/mL.
For the compound `CCOc1cc(/C=N/NC(=O)c2ccccn2)ccc1OC(=O)CC1SC(=O)NC1=O` (stereo not drawn), the MIC in data set [1] is above 512 µg/mL.
On the same count and under the same terms, the result for `O=C(/C=C1/SC(=O)NC1=O)Oc1ccc(/C=N/NC(=O)c2cccc(Cl)c2)cc1` reads 128 µg/mL.
Turning to `O=C(CC1SC(=O)NC1=O)Oc1ccc(/C=N/NC(=O)c2ccncc2)cc1Cl` (stereo not drawn), the MIC in data set [1] was found to be 1 µg/mL. The Stabilty entry in [12] was “Stable”. The Retention_time in data set [13] is 7.59 min. In the data set on Vero, the IC50 turned out to be 31.9 µg/mL (≈ 73.7 µM). Also, the selectivity ratio in data set [3] was found to be 31.9.
In the case of `O=C(CC1SC(=O)NC1=O)Oc1cccc(/C=N/NC(=O)c2cccc(Cl)c2)c1` (stereo not drawn), the MIC in [1] worked out at 128 µg/mL.
As to `O=C(CC1SC(=O)NC1=O)Oc1ccc(/C=N/NC(=O)c2ccncc2)cc1` (stereo not drawn), the MIC in data set [1] worked out at 1 µg/mL. The same compound registered a 50% inhibitory concentration (IC50) with Vero of 91.7 µg/mL (≈ 230 µM). The Retention_time in [14] is 3.48 min. Also, the Stabilty entry in data set [15] is given as “Stable”. The selectivity ratio in data set [3] is 91.7.
For `O=C(CC1SC(=O)NC1=O)Oc1ccc(/C=N/NC(=O)c2cccnc2)cc1` (stereo not drawn), in data set [1], the minimum inhibitory concentration (MIC) was determined as 512 µg/mL.
